≈ marks a conversion by molar mass, not a printed value.
Tests used:
E. coli BC enzyme = settings: read-out: IC50 for the E. coli BC enzyme; cited from earlier work
[1] = test system: ES100 (tolC deficient derivative of AB734); assay: MIC by broth microdilution, ES100; type: cell-based, E. coli
Method: (§1) Selected DdlB inhibitors were tested for their antibacterial activity against two E. coli strains E. coli 1411 and E. coli AB734 (Table 2). […] Additionally, growth inhibition of efflux pump-deficient strains SM1411 (acrAB deficient derivative of 1411) and ES100 (tolC deficient derivative of AB734) was measured, and MICs were repeated for each strain in the presence of polymyxin B nonapeptide (PMBN) to assess the impact of outer-membrane permeability on antimicrobial activity.
(§2) Minimum inhibitory concentrations (MICs) were determined by broth microdilution against E. coli 1411, SM1411 (acrAB deficient derivative of 1411), AB734 and ES100 (tolC deficient derivative of AB734) according to CLSI guidelines. MICs were repeated for each strain in the presence of polymyxin B nonapeptide (4 μg/ml) to assess the impact of outer-membrane permeability on antimicrobial activity.

[2] = test system: SM1411 (acrAB deficient derivative of 1411); assay: MIC by broth microdilution, SM1411; type: cell-based, E. coli
Method: as §1, §2

E. coli DdlB [3] = target: T1, E. coli DdlB (Escherichia coli, UniProt P07862); assay: Isothermal titration calorimetry of binding to DdlB; settings: ITC, 37°C
T1 construct: polyhistidine (His) tag (N); made in house; host or cells: E. coli BL21(λDE3), vector pQE-30 UA (Qiagen)
Method: Two of the compounds, 14 and 33, were also tested by ITC to obtain thermodynamic parameters of the binding into DdlB active site. Heat changes upon binding of the ligand on the E. coli DdlB were measured directly, corrected for the heats of dilution, and the model function was fitted to the experimental data points (see the Experimental section).
The value of critical parameter for obtaining highly reliable thermodynamic data ( [drawing 10] ) was not optimal due to low inhibitors solubility and quite low binding constants. Nevertheless, the conclusions below can be drawn. Experiments for the two compounds result in similar binding constants (K b≈10^5 M^−1) (Table 1), but the driving forces for the binding differ (Figure 11). The binding of compound 14 to DdlB results from favourable enthalpy and entropy contributions. […] But still, compensation of the opposing effects at 33 results in similar [drawing 11] (and binding constant) as at 14, although there are less specific interactions between 33 and the protein as at 14.
The heat changes upon binding were measured using a VP-ITC microcalorimeter from MicroCal, LLC (Northampton, MA, USA). Purified DdlB stock solution in 20% glycerol was dialysed for 40 hours at 4°C (50 mM Hepes, pH = 8.0, 10 mM KCl, 10 mM (NH4)2SO4, 5 mM MgCl2, and 0.01% Triton X-114) prior to titration. The ligand solutions were prepared by adding a stock solution of 14 or 33 in DMSO to the dialysis buffer to obtain final 50 μM solution of the DdlB inhibitor in 5% DMSO. Successive aliquots (11–31 μl) of the degassed ligand solution were injected at 5–8 min intervals by a motor driven syringe (300 μl) into the degassed DdlB solution (approximately 2 μM, 5% DMSO) in the calorimeter cell (V = 1.386 ml) with constant stirring (300 rpm) at 37°C. At the end of experiment the final ratio of ligand:enzyme in the titration cell was about 6∶1. The titration data was further corrected for the heat changes observed in the control titration of ligand solution into the dialysis buffer, 5% DMSO, alone. The experimental data was analysed using the Origin 7.0 software provided by MicroCal and fitted by a home written program, based on the non-linear Levenberg–Marquardt χ^2 regression procedure, assuming a single binding site model (two parameter fit): [drawing 12] [drawing 13] where P, L, and PL represent DdlB, ligand, and DdlB-ligand complex, ΔH and [drawing 14] are the measured enthalpy upon aliquot addition and the standard enthalpy change of the binding reaction, [drawing 15] and [drawing 16] represent the total number of moles of ligand and DdlB-ligand complex in the titration cell, r is the bound ligand to total protein concentration,[P]tot, ratio and K b is the binding constant. A detailed explanation of the applied model equation is given in the Information S2.

DdlB = target: T2, DdlB (Escherichia coli, UniProt P07862); assay: Surface plasmon resonance binding to immobilised DdlB; settings: steady-state affinity model; 25°C; 50 mM Hepes, 150 mM NaCl, 5% DMSO; read-out: KD (SPR)
T2 construct: polyhistidine (His) tag (N); made in house; host or cells: E. coli BL21(λDE3), vector pQE-30 UA (Qiagen)
Method: The binding of the compounds 11, 13, 14, 24, 27, 33, and 35 to the target enzyme was confirmed using surface plasmon resonance (SPR) (Figure 10). Experiments were performed at conditions that enable long term stability of the enzyme. […] The enzyme was covalently attached to the surface of a sensor chip CM5 and compounds were titrated over the surface. The binding of all the compounds was characterised by fast association and dissociation rates. Equilibrium affinity constants, estimated from the steady-state binding levels are in agreement with enzymatic studies and ITC. In addition, the binding of other compounds was tested but insufficient solubility at higher concentrations of analytes in the running buffer precluded analysis.
Figure 10 SPR analysis of compounds binding to DdlB. Different concentrations of compounds were tested for the binding (left panels in all cases). The binding curves (right panels) were generated by ploting steady-state response levels, i.e. at the end of the association phase, vs concentration of the injected compound. For each compound 3–5 independent titrations were performed.
The binding constants were obtained by using a Biacore T100 (Biacore, GE Healthcare, USA). […] Two 1 min injections of 50 μg/ml DdlB diluted in 10 mM Na-acetate, pH 4.0 were applied on the second flow cell. The first flow cell was left unmodified and served as a control for non-specific binding of tested compounds. The remaining active groups on the surface of both flow cells were deactivated with a 7-min injection of ethanolamine. The level of immobilized enzyme was around 10000 response units.
Each analyte was titrated, with 3 or 4 repetitions, using different concentrations according to their solubility in running buffer (50 mM Hepes, 150 mM NaCl, 5% DMSO, pH 7.4), usually from 0,781 μM to 500 μM. One concentration was repeated at the end of the assay in each dilution series, in order to check the surface stability and repeatability. The association lasted 60 seconds at a flow-rate 30 μl/min. No regeneration was needed. All experiments were performed at 25°C. Sensorgrams were double referenced by subtracting the signal obtained in the empty flow cell and the injection of the buffer. The steady-state response levels were fitted using the Steady State Affinity model in Biacore T100 Evaluation software.

E. coli DdlB [4] = target: T1, E. coli DdlB; assay: Colorimetric malachite green inhibition assay of DdlB; type: biochemical; settings: for IC50: malachite green assay, 700 μM D-Ala, 500 μM ATP, 37°C, 20 min, read-out: inhibitory activity on DdlB: IC50
Method: All of the synthesized 6-arylpyrido[2,3-d]pyrimidines 11–36 were assayed for in vitro inhibitory activity on E. coli DdlB by detecting orthophosphate generated during the enzymatic reaction using a Malachite green assay.
Inhibition of DdlB was measured at different inhibitor and ATP concentrations in order to determine Ki values and the mode-of-action of both compounds.
The target compounds were tested for their ability to inhibit the D-Ala-adding activity of DdlB ligase with the colorimetric malachite green method in which orthophosphate generated during the reaction is measured. Each compound was tested in duplicate at 100, 250 or 500 μM in a mixture, final volume 50 μL, containing 50 mM Hepes (pH 8.0), 5 mM MgCl2, 10 mM (NH4)2SO4, 10 mM KCl, 700 μM D-Ala, 500 μM ATP, purified His-tagged DdlB (diluted in 50 mM Hepes (pH 7.2) and 1 mM DTT) and the test compound dissolved in DMSO. The final concentration of DMSO was 5% (v/v). The reaction mixture was incubated at 37°C for 20 min, then quenched with 100 μL of Biomol reagent and absorbance at 650 nm was measured after 5 min. To exclude possible promiscuous inhibitors, all compounds were tested in the presence of Triton-114 (0.005%). Residual activities were calculated relative to control assays without the compounds and with DMSO.

Ddl = target: Ddl; set-up: method as in PMID 14479178; settings: read-out: Ki of D-cycloserine on Ddl; cited from earlier work
[5] = with polymyxin B nonapeptide (4 μg/ml)
[6] = calculated from the fitted parameters

## Nc1ncc2cc(-c3c(Br)cccc3Br)c(N)nc2n1 [Compound 33, 6-(2,6-dibromophenyl)pyrido[2,3-d]pyrimidine-2,7-diamine]
E. coli BC enzyme
  IC50: < 0.005 µM
[1]; Escherichia coli, read-out: MIC ES100 (tolC)
  MIC: 0.5 µg/mL (≈ 1.27 µM)
[1]; [5]
  MIC ES100 +PMBN: 0,125 μg/ml
[2]; Escherichia coli, read-out: MIC SM1411 (acrAB)
  MIC: 1 µg/mL (≈ 2.53 µM)
[2]; [5]
  MIC SM1411 +PMBN: 0,25 μg/ml
E. coli DdlB [3]
  Kd: 10 µM
  standard enthalpy of binding ([drawing 4]): 4 kcal/mol
E. coli DdlB [3]; [6]
  entropy contribution of binding ([drawing 6]): 11 kcal/mol
  standard Gibbs free energy of binding ([drawing 5]): -7 kcal/mol
DdlB
  Kd: 161 ± 73.7 µM
E. coli DdlB [4]; against ATP (50-500 μM), D-Ala 10 mM, competitive model
  Ki: 38 ± 5 µM
E. coli DdlB [4]; kinetic analysis at different inhibitor and ATP concentrations
  mode of inhibition of DdlB: ATP competitive inhibitors
E. coli DdlB [4]
  IC50: 453 µM

## N[C@@H]1CON=C1O [D-cycloserine, D-4-amino-3-isoxazolidone, reference compound]
Ddl
  Ki: 27 µM
E. coli DdlB [4]
  IC50: 296 µM

From PMC3410885, “6-Arylpyrido[2,3-d]pyrimidines as Novel ATP-Competitive Inhibitors of Bacterial D-Alanine:D-Alanine Ligase” (PLoS ONE, 2012)
